Assay results: a melting point compilation (Tetko et al.)

Conditions: a range is the spread between reports

SMILES	melting point
c1ccc2c(c1)OCCOCCOCCOCCO2	79 to 80 °C
NCC(O)c1ccccc1 (stereo unspecified)	56.5 to 57 °C
C1CCOC1	-108 °C
C=CCC(=O)O	-39 to -35 °C
CC(C)(O)C(=O)O	79 to 82.5 °C
O=Cc1cccc([N+](=O)[O-])c1	58 to 59 °C
O=C(O)Cc1cccc(F)c1	43 to 46 °C
CC1=C(C)CCC1	-90.4 to -90 °C
c1ccc(-c2cnc(-c3ccccc3)o2)cc1	72 to 74 °C
c1ccc(CSCc2ccccc2)cc1	49 to 49.5 °C
CI	-67 to -64 °C
O=C1C(O)=C(Cl)C(=O)C(O)=C1Cl	283 to 284 °C
O=C1CCc2ccccc21	40 to 42 °C
O=C(O)CI	81 to 82.5 °C
CC(C)(O)c1ccccc1	32 to 36 °C
O=Cc1ccc(Oc2ccccc2)cc1	24.5 to 25 °C
O=C(O)c1cc(F)cc(F)c1	121 to 122 °C
Oc1c(Cl)cc(Cl)c(Cl)c1Cc1c(O)c(Cl)cc(Cl)c1Cl	164 to 166 °C
Cc1ccc(OCC(=O)O)cc1	140 to 141 °C
Cc1cccc2c1ccc1cc(C(C)C)ccc12	99 to 101 °C
CCOC=O	-81 to -79.6 °C
FC(F)(F)C(F)(F)C(F)(F)C(F)(F)C(F)(F)C(F)(F)C(F)(F)C(F)(F)F	-25 to -23.2 °C
C[Si](c1ccccc1)(c1ccccc1)c1ccccc1	67 to 69.5 °C
BrCCCBr	-34.2 to -34 °C
Cc1cc(C)c(Br)c(C)c1	-1 to 2 °C

SMILES	melting point
Cc1cccc(Cl)c1	-48 to -47.8 °C
O=C1OCc2ccccc21	74 to 75 °C
CC(=O)c1ccco1	29 to 33 °C
CCc1ccc(CC)cc1	-43 to -42.8 °C
CC(C)(C)C(=O)CC#N	68 to 71 °C
c1cc2c3c(c1)CCCN3CCC2	35 to 40 °C
CC(C)C(C(C)C)C(C)C	-82 to -81.7 °C
O=C(O)C(F)(F)C(F)(F)C(F)(F)F	-18 to -17.5 °C
COCC(C)O (stereo unspecified)	-100 to -95 °C
CCN(CC)c1ccccc1	-38.8 to -38 °C
Cc1ccc(-c2ccccc2)cc1	46 to 49.5 °C
CCC(C)C(C)(C)C (stereo unspecified)	-112 °C
ClC(Cl)c1ccccc1	-17 to -16 °C
CCOCOCC	-66.5 to -66 °C
Cc1ccccc1C(N)=O	142 to 147 °C
CCCCCCCCCCCCCCCC(=O)Cl	11 to 12 °C
CCc1nnc(N)s1	200 to 201 °C
CCC(C)=C(C)C	-118 °C
N#CCCC#N	54 to 56 °C
CC1(C(=O)O)CCC(C(=O)O)C1(C)C (stereo unspecified)	187 to 189 °C
c1ccc(-c2nc(-c3ccccc3)c(-c3ccccc3)[nH]2)cc1	275 to 276 °C
COc1cccc(CC(=O)O)c1	70 to 72 °C
Nc1ccc(Br)cc1Br	78 to 80 °C
C1CNCCNC1	41 to 43.5 °C
NC(=O)c1cccc(N)c1	113 to 116 °C

SMILES	melting point
OCc1ccccc1-c1ccccc1	49 to 50 °C
CCSCC	-104 °C
CC/C=C/C(C)C	-142 °C
N#Cc1ccc2c(c1)OCO2	93 to 94 °C
Cc1n[nH]cc1Br	75 to 76.5 °C
O=C(O)Cc1ccccc1Cl	95 to 96 °C
CN1CCN(C)C1=O	8 to 8.2 °C
NC(=O)CCl	118 to 121 °C
Nc1c(F)c(F)cc(F)c1F	31 to 31.5 °C
CCCCCCCCCCCCC(=O)O	41.5 to 44.5 °C
c1ccc(COc2ccc3[nH]ccc3c2)cc1	99 to 102 °C
Cc1cc(Cl)nc(Cl)c1C#N	110 to 113 °C
CC(=O)Nc1ccccc1C(=O)O	184 to 186 °C
CCC(O)(CC)CC	-13 to -12.5 °C
O=S(=O)(Cl)c1ccc2ccccc2c1	76 to 81 °C
Nc1ccc(Cl)cc1[N+](=O)[O-]	116 to 118 °C
CCCCCCCCCCCCOC(=O)c1cc(O)c(O)c(O)c1	96.5 to 97 °C
CCc1ccccc1Br	-68 to -67.9 °C
NC(N)=NC(=O)c1nc(Cl)c(N)nc1N	240 to 241 °C
O=C(O)c1cc(F)ccc1F	130 to 133 °C
CCC(=O)c1ccc(O)cc1O	99 to 100 °C
c1ccc(C2CO2)cc1 (stereo unspecified)	-37 to -35.6 °C
Cc1cccc(O)c1C	71.5 to 75 °C
N#Cc1ccc([N+](=O)[O-])cc1	145 to 149 °C
S=c1nc[nH]c2nc[nH]c12	313 to 314 °C

SMILES	melting point
CC(=O)c1ccncc1	15 to 16 °C
CC(C)C(Br)C(=O)O (stereo unspecified)	39 to 44 °C
O=[N+]([O-])c1ccccc1Br	42 to 43 °C
Cc1ccc(N)cc1Cl	23 to 26 °C
C=CCOc1nc(OCC=C)nc(OCC=C)n1	26 to 27 °C
C(=Nc1ccccc1)Nc1ccccc1	138 to 142 °C
CSC(C)C	-102 °C
C=CC(=C)C	-146 °C
C=Cc1ccc(F)cc1	-36 to -34.5 °C
CC(C)(C)OOC(=O)c1ccccc1	7 to 8 °C
Nc1c(Cl)ccc(Cl)c1C(=O)O	152 to 155 °C
CC#CCCC	-90 to -89.6 °C
Clc1ccc(Br)cc1Cl	24 to 25 °C
O=C1OC(=O)c2c(Cl)c(Cl)c(Cl)c(Cl)c21	254 to 256 °C
CC(=O)O	16.6 to 17 °C
COC(=O)c1ccc([N+](=O)[O-])cc1	95 to 96 °C
CC(=O)Nc1ccc(C(=O)O)cc1	256 to 260 °C
NC1CCCC1	-85.7 to -82.7 °C
CCCCCCCCCCC1CCCCC1	-2 to -1.7 °C
CC(C)(Br)C(=O)O	44 to 48.5 °C
CCC(CC)CC	-119 °C
CCCCCC(=O)OCCC	-69 to -68.7 °C
O=C(O)C(Cl)Br (stereo unspecified)	27 to 31.5 °C
CCCCS(=O)(=O)CCCC	44 to 45 °C
CC(C)CBr	-119 to -117 °C

SMILES	melting point
O=[N+]([O-])c1cc(I)c(O)c(I)c1	153 to 157 °C
CCOCC	-116 °C
NC(=O)c1cccnc1	130 °C
ClC(Cl)(Cl)Br	-6 to -5.7 °C
O=C(/C=C1\Cc2ccccc21)c1ccccc1	50 to 55 °C
O=C(O)c1c(F)cccc1Cl	158 to 160 °C
CCOc1ccc(C(C)(C)COCc2cccc(Oc3ccccc3)c2)cc1	36 to 37 °C
Cc1ccc(C)n1-c1ccccc1	49.5 to 50 °C
C#CCCCC	-132 °C
COc1ccc(OC)cc1	56 to 60 °C
CCCCCCCCCCCCCCCCCC(=O)OCC	33 to 35 °C
CCCSSCCC	-86 to -85.6 °C
C=CCBr	-119 °C
CN(C)c1ccc([N+](=O)[O-])cc1	164 to 165 °C
CC(c1ccccc1)c1ccccc1	-18 to -17.9 °C
CC1CCC(C)(C)C1 (stereo unspecified)	-142 °C
COC(=O)c1ccc(C(=O)OC)cc1	141 to 142 °C
Cc1ccc2c(c1)C(=O)c1ccccc1C2=O	172 to 177 °C
Clc1ccc(C(c2ccccc2Cl)C(Cl)(Cl)Cl)cc1 (stereo unspecified)	74.2 to 75 °C
C=C(C)Cl	-138 to -137 °C
C=CCCCCCC	-102 °C
C#Cc1ccccc1	-45 to -44.8 °C
Nc1cc(Cl)c(O)c(Cl)c1	167 to 168 °C
CC[Si](CC)(CC)CC	-82.5 to -82 °C
C=Cc1ccc2ccccc2c1	65 to 66 °C

SMILES	melting point
O=[N+]([O-])c1cc(S(=O)(=O)c2ccc(F)c([N+](=O)[O-])c2)ccc1F	194 °C
c1ccncc1	-42 to -41.6 °C
COc1cc(C#N)cc(OC)c1OC	93 to 94 °C
NC(=O)C(Cl)Cl	99 to 99.4 °C
C=CC=C	-113 to -109 °C
CCC#CC(C)C	-117 °C
ClC1c2ccccc2CCc2ccccc21	106 to 107 °C
O=[N+]([O-])c1cccc(Cl)c1	43 to 46 °C
CC(=O)Oc1cccc2ccccc12	44.5 to 45 °C
CCOC(=O)c1ccc(N)cc1	88 to 92 °C
CC(=O)c1ccc(Cl)c(Cl)c1	73 to 76 °C
Cc1ccccc1C(C)C	-72 to -71.5 °C
CC(=O)c1ccc(-c2ccccc2)cc1	120 to 122 °C
CC1CC(C)C(C)C1 (stereo unspecified)	-133 to -131 °C
Oc1cccc(C(F)(F)F)c1	-2 to -1.8 °C
CCCCCCCCCCCCCCCCCCCC(=O)O	75 to 75.4 °C
Ic1ccc(I)cc1	130 to 132 °C
Oc1ccccc1Br	5 to 5.6 °C
Fc1c(F)c(F)c(C(F)(F)F)c(F)c1F	-66 to -65.6 °C
Cc1cccc(O)c1O	65 to 68 °C
Cc1cc(C)c(C)c(CCl)c1C	69.5 to 70.5 °C
Cc1ccc(-c2cc(C(F)(F)F)nn2-c2ccc(S(N)(=O)=O)cc2)cc1	158 °C
Brc1ccccc1	-31 to -30.6 °C
CN(C=O)c1ccccc1	11 to 14.5 °C
CCc1nc(C)c[nH]1	47 to 50.5 °C

SMILES	melting point
Cc1cc(Cl)nc2ccccc12	55 to 59 °C
CC(=O)NC12CC3CC(CC(C3)C1)C2	148 °C
BrCc1ccc(Br)cc1	62 to 63 °C
O=C(Cl)c1ccc(C(=O)Cl)cc1	81 to 83.5 °C
Cc1ccc(C)c(C)c1	-44 to -43.8 °C
C=CC	-185 °C
CNC1=Nc2ccc(Cl)cc2C(c2ccccc2)=[N+]([O-])C1	236 °C
Nc1cnc2ccccc2c1	91.5 to 94 °C
Clc1ccc(Cl)c(Br)c1	34 to 35 °C
c1cc2ccc3ccc4ccc5ccc6ccc1c1c2c3c4c5c61	437 to 440 °C
O=C1c2ccccc2CCc2ccccc21	30 to 33 °C
O=C(O)Cc1ccc(O)c(O)c1	128 to 129 °C
CCOc1ccc(NC(C)=O)cc1	134 to 138 °C
CC(=O)C(C)C	-93.1 to -92 °C
O=S(=O)(Cl)c1ccc(Br)cc1	75 to 76 °C
O=C(O)CBr	47 to 50 °C
CCc1cc(C)cc(C)c1	-84.3 to -84 °C
CCC(=O)c1cc(F)c(O)c(F)c1	127 to 130 °C
CCCCCCCCC(=O)O	10 to 12.3 °C
OCCN1CCCCC1	16 to 17.9 °C
Nc1c(Cl)cc([N+](=O)[O-])cc1Cl	189 to 191 °C
